According to patent US12122833B2, “Combination therapies of HDAC inhibitors and PD-1 inhibitors” (HUYABIO International, LLC, priority 2016, dated 2024):

Experiments:
[1] = molecular target: T1, HDAC 10 (Homo sapiens, UniProt Q969S8); settings: reported by Ning et al.; cited from earlier work
T1 sequence (Q969S8 1-669): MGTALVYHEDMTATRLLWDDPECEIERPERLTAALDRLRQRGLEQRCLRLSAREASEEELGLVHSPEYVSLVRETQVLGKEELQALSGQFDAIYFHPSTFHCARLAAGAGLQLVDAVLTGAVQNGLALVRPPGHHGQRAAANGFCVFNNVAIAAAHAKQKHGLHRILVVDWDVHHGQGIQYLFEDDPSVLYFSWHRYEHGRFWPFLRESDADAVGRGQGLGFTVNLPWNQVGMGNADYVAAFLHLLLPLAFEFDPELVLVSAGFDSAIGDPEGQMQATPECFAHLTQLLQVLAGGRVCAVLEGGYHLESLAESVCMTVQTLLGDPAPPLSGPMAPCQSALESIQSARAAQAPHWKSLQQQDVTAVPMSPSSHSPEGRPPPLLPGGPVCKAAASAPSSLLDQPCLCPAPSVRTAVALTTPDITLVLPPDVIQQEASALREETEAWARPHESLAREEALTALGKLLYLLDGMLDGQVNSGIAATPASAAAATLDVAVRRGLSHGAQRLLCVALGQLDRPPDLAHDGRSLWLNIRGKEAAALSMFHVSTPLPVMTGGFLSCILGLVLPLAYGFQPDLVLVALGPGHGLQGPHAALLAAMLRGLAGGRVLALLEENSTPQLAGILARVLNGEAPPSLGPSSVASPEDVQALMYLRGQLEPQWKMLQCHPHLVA

[2] = system: MC38 murine colon carcinoma cells; experiment: Example 1: tumor growth delay, MC38 murine colon carcinoma in C57BL/6 mice; format: in vivo, mouse; settings: for Median TTE: endpoint 1000 mm^3 or Day 47, n=10; for % TGD: vs vehicle
Method: In the present example, HBI-8000 was tested as monotherapy and in combination with anti-PD-1 at 5 mg/kg. The experiment included a vehicle-treated group, and a PD-1 inhibitor antibody monotherapy group, which served as the control groups for analysis of efficacy. Tumors were measured twice per week until the study was ended on Day 47. Each animal was euthanized when its tumor attained the endpoint tumor volume of 1000 mm^3 or on the final day of the study, whichever came first, and the time to endpoint (TTE) for each mouse was calculated. Treatment response was determined from an analysis of percent tumor growth delay (% TGD), defined as the percent increase in the median time to endpoint (TTE) for treated versus control mice; and by log rank significance of differences in survival among groups and regression responses.
Mice: Female C57BL/6 mice (Charles River Laboratories) were eight weeks old, with a body weight (BW) range of 15.4 to 22.0 grams on Day 1 of the study. The animals were fed ad libitum water (reverse osmosis, 1 ppm Cl), and NIH 31 Modified and Irradiated Lab Diet® consisting of 18.0% crude protein, 5.0% crude fat, and 5.0% crude fiber. The mice were housed on irradiated Enrich-o'Cobs™ Laboratory Animal Bedding in static microisolators on a 12-hour light cycle at 20-22° C. (68-72° F.) and 40-60% humidity.
Tumor Cells: MC38 murine colon carcinoma cells were maintained in Dulbecco's Modified Eagle Medium (DMEM) supplemented with 10% fetal bovine serum and 2 mM glutamine, 100 units/mL penicillin G sodium, […] streptomycin sulfate, and 25 μg/mL gentamicin. Cell cultures were maintained in tissue culture flasks in a humidified incubator at 37° C., in an atmosphere of 5% CO2 and 95% air.
Tumor Implantation: Cells were harvested during exponential growth, and resuspended in cold DMEM. Each mouse was inoculated subcutaneously in the right flank with 1×10^6 cells (0.1 mL of cell suspension). Tumors were calipered in two dimensions to monitor growth as their mean volume approached the desired 100-150 mm^3 range. Tumor burden was calculated using the formula:
[formula] where w=width and l=length, in mm, of the tumor. Tumor weight may be estimated with the assumption that 1 mg is equivalent to 1 mm^3 of tumor volume. Fourteen days after tumor implantation, which was designated as Day 1 of the study, animals with individual tumor volumes from 75 to 221 mm^3 were sorted into eleven groups (n=10/group) with group mean tumor volume of 130-133 mm^3. […]
Tumor Growth Delay: Tumors were measured using calipers twice per week, and each animal was euthanized when its tumor reached a volume of 1000 mm^3 or at the end of the study (D47), whichever came first. […] The time to endpoint (TTE) for analysis was calculated for each mouse by the following equation: […]

[3] = HBI-8000 20 mg/kg p.o. qd×21, alone or plus anti-PD-1 5 mg/kg i.p. biwk×3
[4] = HBI-8000 50 mg/kg p.o. qd×21, alone or plus anti-PD-1 5 mg/kg i.p. biwk×3

For `Nc1cc(F)ccc1NC(=O)c1ccc(CNC(=O)/C=C/c2cccnc2)cc1` [HBI-8000, N-(2-amino-4-fluorophenyl)-4-[[[(2E)-1-oxo-3-(3-pyridinyl)-2-propen-1-yl]amino]methyl]benz amide], the “activity at HDAC 10 compared with Entinostat” value [1] is given as “more active than Entinostat”, the “inhibition of HDAC 10” value [1] is given as “low nanomolar concentrations” and the “Median TTE” value [2, 3] is given as 18.9 days. The “% TGD” value [2, 3] was −8%, the “Median TTE” value [2, 4] was 22.8 days and the “% TGD” value [2, 4] was 11%.
